Measurements taken from patent US20140023611A1 (priority 2010, published 2014).
pIC50: −log10 of the molar value.

Assays:
[1] = human absorption data, common drugs; cited from earlier work
[2] = tested on: uptake of phosphate from the intestine; test: In vivo assay: bolus phosphorus (phosphate) challenge; set-up: species or system Sprague-Dawley rats; settings: Structure (V) examples, Table 4, rat, oral 30 mg/kg
Description: By pretreating animals with a low phosphorus diet followed by the subsequent dosing of a phosphorus bolus, serum phosphorus levels were monitored after 30 minutes as a surrogate for intestinal phosphorus absorption. […] The in vivo bolus phosphorus challenge model used here mimics this model in rats.
Male, 7-week-old Sprague-Dawley rats (Charles-River laboratories international, Hollister, Calif.) were allowed to acclimatize for a minimum of 3 days before switching to a synthetic low-phosphorus diet (TD.85010, Harlan Teklad, Madison, Wis.) which contains 0.1% phosphorus and 0.6% calcium. At day 5, testing compounds or vehicle alone (as indicated) were orally administered at the indicated dose in a volume of 5 ml/kg, followed by a bolus gavage of monobasic sodium phosphate (1 mmol in 1 ml) 15 min after compound dosing. Serum was collected via retroorbital bleeding 30 min post phosphate bolus and phosphate levels were determined utilizing an ACE ALERA blood chemistry analyzer (Alfa Wassermann Diagnostic Technologies, West Caldwell, N.J.). […]
Male, 7-week-old Sprague-Dawley rats (Charles-River laboratories international, Hollister, Calif.) were allowed to acclimate for a minimum of 3 days before switching to a synthetic low-phosphorus diet (TD.85010, Harlan Teklad, Madison, Wis.) which contains 0.1% phosphorus and 0.6% calcium. At day 5, testing compounds or vehicle alone (as indicated) were orally administered at the indicated dose in a volume of 5 ml/kg, followed by a bolus gavage of monobasic sodium phosphate (1 mmol in 1 ml) 15 min after compound dosing. Serum was collected via retroorbital bleeding 30 min post phosphate bolus and phosphate levels were determined utilizing an ACE ALERA blood chemistry analyzer (Alfa Wassermann Diagnostic Technologies, West Caldwell, N.J.).
Serum was collected 30 minutes after gavage, and phosphate levels measured. […] The in vivo bolus phosphate challenge model used here mimics this model in rats.
Male, 7-week-old Sprague-Dawley rats (Charles-River laboratories international, Hollister, Calif.) were allowed to acclimatize for a minimum of 3 days before switching to a low-phosphorus diet (TD.85010, Harlan Teklad, Madison, Wis.) which contains 0.1% phosphorus and 0.6% calcium. At day 5, testing compounds or vehicle alone (as indicated) were orally administered at the indicated dose in a volume of 5 ml/kg, followed by a bolus gavage of monobasic sodium phosphate (1 mmol in 1 ml) 15 min after compound dosing. Serum was collected via retroorbital bleeding 30 min post phosphate bolus and serum phosphate levels were determined utilizing an ACE ALERA blood chemistry analyzer (Alfa Wassermann Diagnostic Technologies, West Caldwell, N.J.).
The representative data on effects of test compounds on serum phosphate levels are shown in Table 4 (data are expressed as mean±SD, with 6 animals per data point). The differences between groups were evaluated by one-way analysis of variance with Dunnett's post hoc tests.

rat NaP2b (SLC34A2) [3] = target: T1, rat NaP2b (SLC34A2) (Rattus norvegicus, UniProt Q9JJ09); test: NaP2b-mediated Pi transport (33P uptake) in transfected HEK293 cells, rat NaP2b; type: cell-based; settings: Structure (V) examples, Table 2; rat NaP2b, HEK293; read-out: pIC50 Range (converted)
T1 construct: host or cells: HEK293
T1 sequence (Q9JJ09 1-695): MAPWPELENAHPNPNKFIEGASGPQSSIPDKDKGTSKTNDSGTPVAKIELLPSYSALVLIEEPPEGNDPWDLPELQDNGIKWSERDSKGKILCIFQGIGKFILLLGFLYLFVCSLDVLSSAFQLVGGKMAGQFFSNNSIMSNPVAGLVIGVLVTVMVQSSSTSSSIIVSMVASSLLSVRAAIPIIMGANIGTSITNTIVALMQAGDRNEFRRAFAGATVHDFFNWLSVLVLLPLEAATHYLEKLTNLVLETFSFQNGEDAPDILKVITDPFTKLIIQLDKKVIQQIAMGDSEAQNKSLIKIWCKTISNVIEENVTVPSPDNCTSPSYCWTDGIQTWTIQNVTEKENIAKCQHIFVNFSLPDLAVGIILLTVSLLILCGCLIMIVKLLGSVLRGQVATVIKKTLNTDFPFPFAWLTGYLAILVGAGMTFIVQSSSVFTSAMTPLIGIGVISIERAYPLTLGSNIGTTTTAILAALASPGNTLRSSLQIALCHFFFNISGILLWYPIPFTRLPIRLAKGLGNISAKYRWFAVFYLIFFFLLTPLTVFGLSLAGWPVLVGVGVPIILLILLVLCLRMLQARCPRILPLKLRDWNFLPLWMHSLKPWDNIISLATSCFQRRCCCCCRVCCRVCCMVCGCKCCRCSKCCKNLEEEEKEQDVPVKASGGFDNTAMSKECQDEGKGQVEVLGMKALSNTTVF
Description: HEK293 cells were obtained from the American Type Culture collection and propagated per their instructions. Expression clones for rat and human NaP2b (SLC34A2) were obtained from Open Biosystems (Catalog numbers MRN1768-9510282, and MHS1010-99823026, respectively). The sequence of the human protein was mutated to insert a threonine after residue 37, and to introduce a N39D mutation.
The rate of phosphate (Pi) uptake into HEK293 cells was measured using a modification of the method described by Mohrmann et al. (Mohrmann, I., Mohrmann, M., Biber, J., and Murer, H. (1986) Am. J. Phys. 250(3 Pt 1):G323-30.) Transfected HEK293 cells were treated with a pharmacological agent to minimize endogenous PiT-mediated phosphate transport activity, such that the only remaining sodium-dependent phosphate transport activity is that which was bestowed by introduction of the NaP2b genes.
(§1) Cells were seeded into 96-well plates at 25,000 cells/well and cultured overnight. Lipofectamine 2000 (Invitrogen) was used to introduce the NaP2b cDNA, and the cells were allowed to approach confluence during a second overnight incubation. […] Cells were then overlayed with either choline uptake buffer or sodium uptake buffer (14 mM Tris, 137 mM sodium chloride, 5.4 mM KCl, 2.8 mM CaCl2, 1.2 mM MgSO4, 100 uM KH2PO4, PiT-silencing agent, 1 mg/mL Bovine Serum Albumin, pH 7.4) containing 6-9 uCi/mL ^33P orthophosphoric acid (Perkin Elmer) and test compound. Each compound was tested at twelve concentrations ranging from 0.1 nM to 30 uM. Assays were run in duplicate.
After incubation for 3-30 minutes at room temperature, assay mixtures were removed, and the cells were washed twice with ice cold stop solution (137 mM sodium chloride, 14 mM Tris, pH 7.4). Cells were lysed by addition of 20 μL 0.1% Tween 80 followed by 100 μL scintillation fluid, and counted using a TopCount (Perkin Elmer).
pIC50 (the negative log of the IC50) values of the test compounds were calculated using GraphPad Prism.
HEK293 cells were obtained from the American Type Culture collection and propagated per their instructions. Expression clones for rat and mouse NaP2b (SLC34A2) cDNAs were obtained from Open Biosystems (Catalog numbers MRN1768-9510282 and MMM1013-98478398 respectively).
The rate of phosphate uptake into HEK293 cells was measured using a modification of the method described by Mohrmann et al. (Mohrmann, I., Mohrmann, M., Biber, J., and Murer, H. (1986) Am. J. Phys. 250(3 Pt 1):G323-30.) Transfected HEK293 cells were treated with a pharmacological agent to minimize endogenous PiT-mediated phosphate transport activity, such that the only remaining sodium-dependent phosphate transport activity is that which was bestowed by introduction of the NaP2b genes.
as §1, with “agent, 0.1% wt/v bovine serum albumin,” for “agent, 1 mg/mL Bovine Serum Albumin,”, “Each compounds” for “Each compound”
After incubation for 3-30 minutes at room temperature, assay mixtures were removed, and the cells were washed twice with ice cold stop solution (137 mM sodium chloride, 14 mM Tris, pH 7.4).

NaPi2b = test: Competition with phosphate: Pi uptake assay repeated at 2.1 vs 0.1 mM phosphate; type: cell-based; settings: potency at 2.1 vs 0.1 mM phosphate
Source text: For example, a phosphate uptake assay can be performed and the IC50 values for a compound at different phosphate concentrations can be determined (e.g., “Enzyme kinetics”, I. Segel, 1975, John-Wiley & Sons, p. 123). IC50 values for non-competitive inhibitors will remain the same or similar with respect to the phosphate concentration, whereas IC50 values for competitive inhibitors will increase (i.e lose potency) as phosphate concentration increases.
To ascertain if an inhibitor was competitive for binding with phosphate, the procedure was repeated, but raising the concentration of the substrate in the assay mixture from 0.1 to 2.1 mM phosphate.

rat NaP2b (SLC34A2) [4] = target: T1, rat NaP2b (SLC34A2); test: Inhibition of NaP2b-mediated Pi (33P) uptake in transfected HEK293 cells, rat NaP2b; type: cell-based; settings: 33P Pi uptake, 0.1 mM phosphate, value given as pIC50 range
Summary of the method: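 The cells transiently expressed NaP2b after Lipofectamine transfection. Each compound was run in duplicate over twelve concentrations, 0.1 nM–30 uM.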

## OC[C@H]1O[C@@H](O[C@@H]2[C@@H](CO)OC(O)(CO)[C@H]2O)[C@H](O)[C@@H](O)[C@H]1O (mixture of isomers) [lactulose]
[1]
  % FA: 0.6%

## O=C(Nc1ccc(N2CCCCC2)cc1C(=O)N/N=C/c1ccc(Cl)c(C(F)(F)F)c1)c1cccc(Cn2cnc(CCO)c2)c1 [Ex. 47, (E)-N-(2-(2-(4-chloro-3-(trifluoromethyl)benzylidene)hydrazinecarbonyl)-4-(piperidin-1-yl)phenyl)-3-((4-(2-hydroxyethyl)-1H-imidazol-1-yl)methyl)benzamide]
[2]
  % Decrease in serum [Pi]: 28%
[2]; mean ± SD, vehicle 5.0 ± 1.3
  Serum increase [Pi] mg/dL from baseline low PI state: 3.6 ± 1.1 mg/dL
Rat NaP2b (SLC34A2) [3]
  IC50: 0.1 to 0.794 µM

## O=C(O)Cc1cccc(SCc2cccc(C(=O)Nc3ccc(N4CCCCC4)cc3-c3cc(C(=O)NCc4cccc(C(F)(F)F)c4)ccn3)c2)c1 [Example 8.18]
NaPi2b
  Competitive with respect to Pi?: No
Rat NaP2b (SLC34A2) [4]
  pIC50: > 6.00

## O=C(O)c1cccc(S(=O)(=O)Cc2cccc(C(=O)Nc3ccc(N4CCCCC4)cc3-c3cc(C(=O)NCc4cccc(C(F)(F)F)c4)ccn3)c2)c1 [Example 8.26, 3-((3-((4-(Piperidin-1-yl)-2-(4-((3-(trifluoromethyl)benzyl)carbamoyl)pyridin-2-yl)phenyl)carbamoyl)benzyl)sulfonyl)benzoic acid]
NaPi2b
  Competitive with respect to Pi?: No
Rat NaP2b (SLC34A2) [4]
  pIC50: 4.50 to 5.00

## NCCOCCOCCOCCc1cn(Cc2cccc(C(=O)Nc3ccc(N4CCCCC4)cc3C(=O)N/N=C/c3ccc(Cl)c(C(F)(F)F)c3)c2)nn1 [Example 25]
Rat NaP2b (SLC34A2) [3]
  IC50: 1 to 7.94 µM

## O=C(Nc1ccc(N2CCCCC2)cc1C(=O)N/N=C/c1ccc(Cl)c(C(F)(F)F)c1)c1cccc(Cn2cc(CCCP(=O)(O)O)nn2)c1 [Example 26]
Rat NaP2b (SLC34A2) [3]
  IC50: 10 to 100 µM

## C=CCc1ccccc1OCC(O)CNC(C)C (stereo not shown) [alprenolol]
[1]
  % FA: 96%

## O=C(O)P(=O)(O)O [foscarnet]
[1]
  % FA: 17%

## OC[C@@H](O)[C@@H](O)[C@H](O)[C@H](O)CO [mannitol]
[1]
  % FA: 26%

## Cc1ccccc1N1C(=O)c2cc(S(N)(=O)=O)c(Cl)cc2NC1C (stereo not shown) [metolazone]
[1]
  % FA: 64%

## O=C(O)c1cc(/N=N/c2ccc(O)c(C(=O)O)c2)ccc1O [olsalazine]
[1]
  % FA: 2.3%

## C=CCOc1ccccc1OCC(O)CNC(C)C (stereo not shown) [oxprenolol]
[1]
  % FA: 97%

## CC(C)NCC(O)COc1cccc2[nH]ccc12 (stereo not shown) [pindolol]
[1]
  % FA: 92%

## CC(=O)Nc1ccc(OCC(O)CNC(C)C)cc1 (stereo not shown) [practolol]
[1]
  % FA: 95%

## OC[C@H]1O[C@H](OC[C@H]2O[C@H](O[C@]3(CO)O[C@H](CO)[C@@H](O)[C@@H]3O)[C@H](O)[C@@H](O)[C@@H]2O)[C@H](O)[C@@H](O)[C@H]1O [raffinose]
[1]
  % FA: 0.3%

## O=C(O)c1cc(/N=N/c2ccc(S(=O)(=O)Nc3ccccn3)cc2)ccc1O [sulfasalazine]
[1]
  % FA: 12%

## CCN1CCCC1CNC(=O)c1cc(S(N)(=O)=O)ccc1OC (stereo not shown) [sulpiride]
[1]
  % FA: 36%

## NC[C@H]1CC[C@H](C(=O)O)CC1 [tranexamic acid]
[1]
  % FA: 55%
